Like-named read-outs stand apart in the source and are kept apart here.
Columns and labels:
[1] = target: T1, human GLP-1 receptor (Homo sapiens, UniProt P43220); assay: cAMP production in cell line stably transformed with human GLP1 receptor, 2 h co-incubation (HTRF); assay type: cell-based; details: CHO-K1/GLP-1R/CRE-luc cells, stimulation for 2 h
T1 construct: expressed in transfected cells
Summary of the method: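 CHO-K1/GLP-1R/CRE-luc cells (human GLP-1R) incubated 2 h at 37 °C with compound (12-point 3-fold series) and 0.5 mM IBMX in DMEM/F12 with 0.1% casein. cAMP measured by HTRF (665/620 nm ratio); EC50 from four-parameter fit.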

[2] = Long-term administration, body weight and food intake of mice fed with CDAHFD high-fat diet; assay type: in vivo, GLP-1R humanized C57BL/6 mice
From the text: The purpose of this assay was to evaluate the effects of long-term administration of the compound on the body weight and food intake of GLP-1R humanized C57BL/6 mice fed with CDAHFD high-fat diet.
C57BL/6_hGLP-1R, male, 5-8 weeks, purchased from Biocytogen Pharmaceuticals (Beijing) Co., Ltd. • Choline-deficient, L-amino acid-defined, high-fat diet (CDAHFD), purchased from Shanghai Bopai Biotechnology Co., Ltd. (Research diet-A06071302) • Ultra-clean bench (CJ-2F, Suzhou Fengshi Experimental Animal Equipment Co., Ltd. • Electronic balance (BSA2202S-CW, Sartorius)
• 3.1 On the day of starting feeding the high-fat diet, the C57BL/6 mice were randomly grouped according to body weight. The first group was Blank, with 7 mice, and was fed with normal control diet. The remaining animals were the modeling group, and were fed with the high-fat diet until the end of the experiment. • 3.2 In week 4 of CDAHFD feeding, the animals in the modeling group were randomly grouped according to body weight, with 7 mice in each group. The first group was Vehicle group (Vehicle: 10%PEG400/10%PG/80% glycine buffer (100 mM glycine, 26 mM NaOH, pH 9) buffer), and was administered solvent; the remaining group was administration group. Administration regime: the corresponding compound was orally administered for a period of 21 days, once each day, the administration dose being 0.3 mg/kg, 1 mg/kg, 3 mg/kg, and 10 mg/kg, and the administration volume being 10 mL/kg. The Blank group continued to be fed with the normal diet, and was orally administered solvent once each day. • 3.3 The day of administration was defined as Day 0. • 3.4 The animals were weighed at each administration and the data were recorded. Oral administration was performed according to body weight, and the administration volume was 10 mL/kg. • 3.5 Starting from day 0 of the experiment, the food intake of the mice in each group was measured every three days. Specifically, after each weighing and administration, the diet was renewed, and the added amount and remaining amount were recorded. • 3.6 On Day 21, the end day, all mice were euthanized sequentially according to grouping order. Plasma and tissues (liver, kidney, ileum, pancreas, and brain) were taken for PK determination, and serum was taken for blood biochemistry determination (ALT, AST, TG, TC, and LDL-C).
The body weight and body weight change rate of the mice after administration were summarized and statistically analyzed. The body weight change rate was calculated according to (BWt - BW0) / BW0 × 100%, where BWt represents mouse body weight on day t of the experiment, and BW0 represents mouse body weight on day 0 of the experiment.

[3] = Pharmacokinetic evaluation in mice, oral administration; assay type: in vivo, Balb/c mice; details: p.o. 5 mg/kg, plasma, single PK; for AUC(0-inf) / AUC(0-t) / Cmax / Tmax / MRT inf: mouse, in vivo, po; for MRT inf: read-out: MRT 0-∞
Summary of the method: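 Male Balb/c mice (n=3) dosed p.o. at 5 mg/kg after overnight fast, vehicle 10% PEG400/10% PG/80% glycine buffer (pH 10), 0.5 mg/mL. EDTA plasma, acetonitrile precipitation, compound quantified by LC/MS/MS; PK parameters by noncompartmental-style software calculation.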

[4] = 3 mg/kg orally once each day for 21 days

T1 sequence (P43220 24-463): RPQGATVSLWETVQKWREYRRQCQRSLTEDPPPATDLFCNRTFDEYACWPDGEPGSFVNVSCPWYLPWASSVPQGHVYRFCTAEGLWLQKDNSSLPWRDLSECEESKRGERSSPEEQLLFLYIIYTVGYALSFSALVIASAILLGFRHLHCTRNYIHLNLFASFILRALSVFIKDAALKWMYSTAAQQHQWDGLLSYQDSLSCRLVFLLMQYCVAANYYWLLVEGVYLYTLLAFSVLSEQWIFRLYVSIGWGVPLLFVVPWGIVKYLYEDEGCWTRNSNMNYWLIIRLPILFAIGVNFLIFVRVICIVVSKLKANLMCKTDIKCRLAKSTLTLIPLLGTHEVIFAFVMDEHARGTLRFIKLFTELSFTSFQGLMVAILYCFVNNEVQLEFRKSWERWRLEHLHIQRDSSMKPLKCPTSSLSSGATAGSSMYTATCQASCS

| SMILES | EC50 [1] [nM] | Body weight change (%)- [2, 4] [%] | AUC(0-inf) [3] [ng·h/mL] | AUC(0-t) [3] [ng·h/mL] | Cmax [3] [ng/mL] | Tmax [3] [h] | MRT inf [3] [h] | tl/2 [3] [h] | EC50 ([1]; read-out: EC50) [nM] | AUC(0-inf) ([3]; male, Balb/c) [ng·h/mL] | AUC(0-t) ([3]; male, Balb/c) [ng·h/mL] | Cmax ([3]; male, Balb/c) [ng/mL] | Tmax ([3]; male, Balb/c) [h] | MRT inf ([3]; male, Balb/c) [h] | Body weight change (%)- ([2]; 0.3mg/kg orally once each day for 21 days) [%] | Body weight change (%)- ([2]; 1 mg/kg orally once each day for 21 days) [%] |
| --- | --- | --- | --- | --- | --- | --- | --- | --- | --- | --- | --- | --- | --- | --- | --- | --- |
| Cc1cc(-n2nc3c(c2-n2ccn(-c4ccc5c(cnn5C5CC5)c4F)c2=O)[C@H](C)N(C(=O)c2cc4cc([C@H]5CCOC(C)(C)C5)ccc4n2[C@@]2(c4noc(=O)[nH]4)C[C@@H]2COC2CC2)CC3)cc(C)c1F [Example 67] | 0.024 | -20.34 | 12100 | 11200 | 1430 | 4 | 8.2 | 7.6 | – | – | – | – | – | – | – | – |
| C#C[C@H]1C[C@]1(c1noc(=O)[nH]1)n1c(C(=O)N2CCc3nn(-c4cc(C)c(F)c(C)c4)c(-n4ccn(-c5ccc6c(cnn6C6CC6)c5F)c4=O)c3[C@@H]2C)cc2cc([C@H]3CCOC(C)(C)C3)ccc21 [Example 143] | – | -19.43 | – | – | – | – | – | 6.9 | 0.013 | 13300 | 12200 | 1200 | 2 | 9 | – | – |
| CC#C[C@H]1C[C@]1(c1noc(=O)[nH]1)n1c(C(=O)N2CCc3nn(-c4cc(C)c(F)c(C)c4)c(-n4ccn(-c5ccc6c(cnn6C6CC6)c5F)c4=O)c3[C@@H]2C)cc2cc([C@H]3CCOC(C)(C)C3)ccc21 [Example 144, 3-((1S,2R)-1-(2-((S)-3-(3-(1-cyclopropyl-4-fluoro-1H-indazole-5-yl)-2-carbonyl-2,3-dihydro-1H-imidazole-1-yl)-2-(4-fluoro-3,5-dimethylphenyl)-4-methyl-4,5,6,7-tetrahydro-2H-pyrazolo[4,3-c]pyridin-5-carbonyl)-5-((S)-2,2-dimethyltetrahydro-2H-pyrano-4-yl)-1H-indole-1-yl)-2-(propyl-1-alkynyl-1-yl)cyclopropyl)-1,2,4-oxadiazol-5(4H)-one] | – | – | 35100 | 23500 | 2240 | 3 | 20.8 | 15.7 | 0.05 | – | – | – | – | – | -10.40 | -14.70 |
| [2H]C([2H])([2H])n1nc2c3c(c(-n4ccn(-c5c6c(nn5-c5cc(C)c(F)c(C)c5)CCN(C(=O)c5cc7cc([C@H]8CCOC(C)(C)C8)ccc7n5[C@@]5(c7noc(=O)[nH]7)C[C@@H]5C)[C@H]6C)c4=O)ccc31)OCCC2 [Example 282, 3-((1S,2S)-1-(5-((S)-2,2-dimethyltetrahydro-2H-pyran-4-yl)-2-((S)-2-(4-fluoro-3,5-dimethylphenyl)-4-methyl-3-(3-(2-(methyl-d3)-2,7,8,9-tetrahydrooxaheptano[4,3,2-cd]indazol-5-yl)-2-carbonyl-2,3-dihydro-1H-imidazol-1-yl)-4,5,6,7-tetrahydro-2H-pyrazolo[4,3-c]pyridine-5-carbonyl)-1H-indol-1-yl)-2-methylcyclopropyl)-1,2,4-oxadiazol-5(4H)-one] | – | – | 18200 | 15000 | 1510 | 2 | 13 | 9.7 | 0.074 | – | – | – | – | – | – | – |
